# Data as given in the kinase profiling compilation of Christmann-Franck et al. (2016).
# Several values for one entry are separate records, joined by “and”; a condition that tells them apart may be missing. Identical values can stand only once.
# Experiments:
# Experiment in all cases: radiometric filter-binding kinase assay, Kinase HotSpot
# Conditions in all cases: compound 0.5 µM; ATP 10 µM
# JAK3 JH1 JH2 (human) = JAK3 JH1 JH2 (human) (UniProt P52333)
# PRKCA (human) = PRKCA (human) (UniProt P17252)
# CSF1R (human) = CSF1R (human) (UniProt P07333)
# DYRK1B (human) = DYRK1B (human) (UniProt Q9Y463)
# NEK7 (human) = NEK7 (human) (UniProt Q8TDX7)
# Chain of NEK7 (human) (Q8TDX7 whole entry, looked up): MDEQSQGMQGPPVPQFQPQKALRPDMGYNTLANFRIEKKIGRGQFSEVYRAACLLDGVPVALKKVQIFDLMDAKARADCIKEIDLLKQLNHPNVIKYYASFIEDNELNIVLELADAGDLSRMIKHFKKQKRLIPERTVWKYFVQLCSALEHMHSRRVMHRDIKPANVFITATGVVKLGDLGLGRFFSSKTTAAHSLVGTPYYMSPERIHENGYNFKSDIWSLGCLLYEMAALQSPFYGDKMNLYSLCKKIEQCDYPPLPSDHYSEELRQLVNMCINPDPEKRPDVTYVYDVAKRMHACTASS
# ABL1 (human) = ABL1 (human) (UniProt P00519)
# STK10 (human) = STK10 (human) (UniProt O94804)
# PRKD3 (human) = PRKD3 (human) (UniProt O94806)
# Chain of PRKD3 (human) (O94806 whole entry, looked up): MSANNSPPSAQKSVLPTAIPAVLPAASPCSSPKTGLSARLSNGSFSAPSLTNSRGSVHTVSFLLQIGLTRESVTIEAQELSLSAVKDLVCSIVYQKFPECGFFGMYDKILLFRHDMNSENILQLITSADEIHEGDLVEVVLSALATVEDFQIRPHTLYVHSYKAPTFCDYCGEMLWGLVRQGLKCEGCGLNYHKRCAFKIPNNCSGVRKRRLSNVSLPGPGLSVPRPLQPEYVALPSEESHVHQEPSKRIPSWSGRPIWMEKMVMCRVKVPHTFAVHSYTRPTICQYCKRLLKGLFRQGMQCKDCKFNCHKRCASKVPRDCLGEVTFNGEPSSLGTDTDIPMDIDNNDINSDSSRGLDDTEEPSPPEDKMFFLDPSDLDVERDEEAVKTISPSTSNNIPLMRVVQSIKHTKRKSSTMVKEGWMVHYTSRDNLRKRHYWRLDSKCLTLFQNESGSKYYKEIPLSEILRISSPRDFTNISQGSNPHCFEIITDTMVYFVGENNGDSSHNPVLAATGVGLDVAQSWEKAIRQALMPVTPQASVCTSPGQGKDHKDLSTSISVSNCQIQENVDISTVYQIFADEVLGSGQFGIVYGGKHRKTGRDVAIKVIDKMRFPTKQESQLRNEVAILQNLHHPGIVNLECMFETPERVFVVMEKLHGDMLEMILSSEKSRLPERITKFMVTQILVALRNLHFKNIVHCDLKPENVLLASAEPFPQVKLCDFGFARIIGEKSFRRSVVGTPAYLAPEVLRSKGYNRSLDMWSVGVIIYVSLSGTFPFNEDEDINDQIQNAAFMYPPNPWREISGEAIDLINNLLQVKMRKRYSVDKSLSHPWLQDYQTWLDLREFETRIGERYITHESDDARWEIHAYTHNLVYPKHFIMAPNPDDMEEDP
# CDK9 CCNK (human) = CDK9 CCNK (human) (UniProt O75909+P50750)
# ACVRL1 (human) = ACVRL1 (human) (UniProt P37023)
# AURKC (human) = AURKC (human) (UniProt Q9UQB9)
# EPHA1 (human) = EPHA1 (human) (UniProt P21709)
# CDC42BPB (human) = CDC42BPB (human) (UniProt Q9Y5S2)
# Chain of CDC42BPB (human) (Q9Y5S2 whole entry, looked up): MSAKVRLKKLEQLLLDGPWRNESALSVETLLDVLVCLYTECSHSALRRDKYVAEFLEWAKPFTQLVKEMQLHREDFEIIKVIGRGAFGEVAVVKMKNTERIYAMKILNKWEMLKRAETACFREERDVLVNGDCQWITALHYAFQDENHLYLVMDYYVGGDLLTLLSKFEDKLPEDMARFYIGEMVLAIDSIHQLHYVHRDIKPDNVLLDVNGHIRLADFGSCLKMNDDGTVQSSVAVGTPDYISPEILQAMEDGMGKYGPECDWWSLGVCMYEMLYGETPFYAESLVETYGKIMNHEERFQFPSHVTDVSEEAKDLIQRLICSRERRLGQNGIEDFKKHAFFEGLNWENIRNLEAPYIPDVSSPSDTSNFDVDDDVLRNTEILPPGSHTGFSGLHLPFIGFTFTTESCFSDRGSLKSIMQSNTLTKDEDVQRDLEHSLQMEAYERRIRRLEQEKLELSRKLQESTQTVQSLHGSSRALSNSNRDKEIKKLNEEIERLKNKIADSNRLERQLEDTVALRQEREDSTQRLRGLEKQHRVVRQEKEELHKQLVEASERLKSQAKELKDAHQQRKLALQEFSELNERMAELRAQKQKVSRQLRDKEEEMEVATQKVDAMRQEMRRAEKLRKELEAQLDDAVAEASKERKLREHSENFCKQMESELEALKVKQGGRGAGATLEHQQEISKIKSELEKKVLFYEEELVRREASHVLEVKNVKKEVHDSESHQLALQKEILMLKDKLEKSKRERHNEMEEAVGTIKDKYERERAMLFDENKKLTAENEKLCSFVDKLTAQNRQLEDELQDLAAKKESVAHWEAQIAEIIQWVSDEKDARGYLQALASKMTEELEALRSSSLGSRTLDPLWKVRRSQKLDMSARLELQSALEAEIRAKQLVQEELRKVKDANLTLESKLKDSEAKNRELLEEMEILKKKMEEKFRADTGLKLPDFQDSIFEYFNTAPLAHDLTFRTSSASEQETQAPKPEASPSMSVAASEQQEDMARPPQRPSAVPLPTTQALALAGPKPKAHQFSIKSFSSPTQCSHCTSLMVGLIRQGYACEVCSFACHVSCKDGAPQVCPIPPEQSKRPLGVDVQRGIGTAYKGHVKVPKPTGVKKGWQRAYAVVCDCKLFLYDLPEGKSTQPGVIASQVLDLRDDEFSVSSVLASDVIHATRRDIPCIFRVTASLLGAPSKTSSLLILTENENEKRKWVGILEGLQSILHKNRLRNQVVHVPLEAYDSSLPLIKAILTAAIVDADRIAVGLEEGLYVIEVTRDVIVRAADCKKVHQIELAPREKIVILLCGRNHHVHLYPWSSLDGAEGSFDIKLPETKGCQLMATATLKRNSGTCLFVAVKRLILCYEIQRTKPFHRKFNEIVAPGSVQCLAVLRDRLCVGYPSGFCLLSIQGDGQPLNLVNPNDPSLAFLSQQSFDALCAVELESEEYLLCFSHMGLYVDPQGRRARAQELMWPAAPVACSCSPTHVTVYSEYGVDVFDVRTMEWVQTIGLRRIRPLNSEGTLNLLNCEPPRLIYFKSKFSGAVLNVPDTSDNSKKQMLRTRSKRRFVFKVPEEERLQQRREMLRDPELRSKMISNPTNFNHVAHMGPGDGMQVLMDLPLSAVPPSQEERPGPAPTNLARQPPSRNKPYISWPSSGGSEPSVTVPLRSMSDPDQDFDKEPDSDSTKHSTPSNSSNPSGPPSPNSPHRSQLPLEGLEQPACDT
# HIPK2 (human) = HIPK2 (human) (UniProt Q9H2X6)
# PRKG1 (human) = PRKG1 (human) (UniProt Q13976)
# STK17A (human) = STK17A (human) (UniProt Q9UEE5)
# FLT1 (human) = FLT1 (human) (UniProt P17948)
# RIPK2 (human) = RIPK2 (human) (UniProt O43353)
# DDR2 (human) = DDR2 (human) (UniProt Q16832)
# Chain of DDR2 (human) (Q16832 whole entry, looked up): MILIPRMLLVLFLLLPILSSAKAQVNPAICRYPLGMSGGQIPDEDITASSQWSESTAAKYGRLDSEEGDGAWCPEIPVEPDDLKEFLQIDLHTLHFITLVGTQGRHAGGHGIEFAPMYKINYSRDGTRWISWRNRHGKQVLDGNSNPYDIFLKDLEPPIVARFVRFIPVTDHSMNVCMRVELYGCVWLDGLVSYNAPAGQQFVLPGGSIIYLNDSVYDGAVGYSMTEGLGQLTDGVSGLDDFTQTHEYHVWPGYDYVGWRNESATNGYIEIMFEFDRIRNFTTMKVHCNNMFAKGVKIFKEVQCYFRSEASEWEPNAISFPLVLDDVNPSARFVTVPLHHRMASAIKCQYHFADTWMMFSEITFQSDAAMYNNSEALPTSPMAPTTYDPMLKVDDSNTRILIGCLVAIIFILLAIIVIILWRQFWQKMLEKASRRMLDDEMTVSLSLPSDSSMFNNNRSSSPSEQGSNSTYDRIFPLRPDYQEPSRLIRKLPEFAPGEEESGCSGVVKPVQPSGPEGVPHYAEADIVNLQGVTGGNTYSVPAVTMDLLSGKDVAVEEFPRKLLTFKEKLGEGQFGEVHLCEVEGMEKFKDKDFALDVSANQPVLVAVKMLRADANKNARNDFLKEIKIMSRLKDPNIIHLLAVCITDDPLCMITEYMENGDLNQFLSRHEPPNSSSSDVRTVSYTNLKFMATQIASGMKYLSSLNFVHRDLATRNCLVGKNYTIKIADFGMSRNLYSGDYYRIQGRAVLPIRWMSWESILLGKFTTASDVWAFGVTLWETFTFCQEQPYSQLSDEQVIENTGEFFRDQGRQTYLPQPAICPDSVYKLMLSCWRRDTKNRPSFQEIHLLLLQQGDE
# SGK2 (human) = SGK2 (human) (UniProt Q9HBY8)
# CAMK2G (human) = CAMK2G (human) (UniProt Q13555)
# CSNK1D (human) = CSNK1D (human) (UniProt P48730)
# RAF1 (human) = RAF1 (human) (UniProt P04049)
# DAPK1 (human) = DAPK1 (human) (UniProt P53355)
# ROS1 (human) = ROS1 (human) (UniProt P08922)
# MARK2 (human) = MARK2 (human) (UniProt Q7KZI7)
# TAOK1 (human) = TAOK1 (human) (UniProt Q7L7X3)
# TXK (human) = TXK (human) (UniProt P42681)
# STK4 (human) = STK4 (human) (UniProt Q13043)
# RPS6KB2 (human) = RPS6KB2 (human) (UniProt Q9UBS0)
# Chain of RPS6KB2 (human) (Q9UBS0 whole entry, looked up): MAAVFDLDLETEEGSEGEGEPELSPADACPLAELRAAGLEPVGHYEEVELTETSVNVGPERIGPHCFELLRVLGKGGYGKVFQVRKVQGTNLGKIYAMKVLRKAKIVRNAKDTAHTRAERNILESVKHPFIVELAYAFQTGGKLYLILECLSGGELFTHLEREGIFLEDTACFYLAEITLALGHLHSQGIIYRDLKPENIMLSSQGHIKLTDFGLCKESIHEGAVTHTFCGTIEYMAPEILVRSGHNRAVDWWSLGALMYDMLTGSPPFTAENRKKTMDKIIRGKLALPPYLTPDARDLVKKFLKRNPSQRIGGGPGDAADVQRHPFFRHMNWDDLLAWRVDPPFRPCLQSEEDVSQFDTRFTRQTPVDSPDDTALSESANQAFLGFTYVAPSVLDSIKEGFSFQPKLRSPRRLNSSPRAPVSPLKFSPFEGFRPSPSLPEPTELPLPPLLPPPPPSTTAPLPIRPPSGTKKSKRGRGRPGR
# TBK1 (human) = TBK1 (human) (UniProt Q9UHD2)
# MYLK (human) = MYLK (human) (UniProt Q15746)
# PHKG2 (human) = PHKG2 (human) (UniProt P15735)
# IRAK4 (human) = IRAK4 (human) (UniProt Q9NWZ3)
# SRPK2 (human) = SRPK2 (human) (UniProt P78362)
# JAK2 JH1 JH2 (human) = JAK2 JH1 JH2 (human) (UniProt O60674)
# DYRK2 (human) = DYRK2 (human) (UniProt Q92630)
# PLK1 (human) = PLK1 (human) (UniProt P53350)
# CSNK2A1 (human) = CSNK2A1 (human) (UniProt P68400)
# MST4 (human) = MST4 (human) (UniProt Q9P289)
# GRK7 (human) = GRK7 (human) (UniProt Q8WTQ7)
# LYN (human) = LYN (human) (UniProt P07948)
smiles,measurement,setting,value
CCn1cnc2c(Nc3cccc(Cl)c3)nc(N[C@@H]3CCCC[C@@H]3N)nc21,residual activity,JAK3 JH1 JH2 (human),99.6%
same,residual activity,PRKCA (human),68.2%
same,residual activity,CSF1R (human),94.2%
same,residual activity,DYRK1B (human),94.4%
same,residual activity,NEK7 (human),86%
same,residual activity,ABL1 (human),94%
same,residual activity,STK10 (human),75.1%
same,residual activity,PRKD3 (human),90.6%
same,residual activity,CDK9 CCNK (human),46.9%
same,residual activity,ACVRL1 (human),99.9%
same,residual activity,AURKC (human),94.5%
same,residual activity,EPHA1 (human),79.6%
same,residual activity,CDC42BPB (human),97.7%
same,residual activity,HIPK2 (human),94%
same,residual activity,PRKG1 (human),91.4% and 91.8%
same,residual activity,STK17A (human),98.4%
same,residual activity,FLT1 (human),92.8%
same,residual activity,RIPK2 (human),70%
same,residual activity,DDR2 (human),97.2%
same,residual activity,SGK2 (human),98.2%
same,residual activity,CAMK2G (human),104%
same,residual activity,CSNK1D (human),97.8%
same,residual activity,RAF1 (human),92.8%
same,residual activity,DAPK1 (human),79.1%
same,residual activity,ROS1 (human),90.7%
same,residual activity,MARK2 (human),90.1%
same,residual activity,TAOK1 (human),90.2%
same,residual activity,TXK (human),69.1%
same,residual activity,STK4 (human),91.3%
same,residual activity,RPS6KB2 (human),103%
same,residual activity,TBK1 (human),92.8%
same,residual activity,MYLK (human),91%
same,residual activity,PHKG2 (human),85.6%
same,residual activity,IRAK4 (human),94.8%
same,residual activity,SRPK2 (human),80.7%
same,residual activity,JAK2 JH1 JH2 (human),104%
same,residual activity,DYRK2 (human),107%
same,residual activity,PLK1 (human),86%
same,residual activity,CSNK2A1 (human),84.2%
same,residual activity,MST4 (human),104%
same,residual activity,GRK7 (human),97.9%
CC(C)[C@H](CO)Nc1nc(Nc2cc(N)cc(Cl)c2)c2ncn(C(C)C)c2n1,residual activity,JAK3 JH1 JH2 (human),108%
same,residual activity,PRKCA (human),66.1%
same,residual activity,CSF1R (human),71.1%
same,residual activity,DYRK1B (human),38.3%
same,residual activity,NEK7 (human),89%
same,residual activity,ABL1 (human),45.5%
same,residual activity,STK10 (human),55.6%
same,residual activity,PRKD3 (human),89.2%
same,residual activity,ACVRL1 (human),109%
same,residual activity,AURKC (human),91.9%
same,residual activity,EPHA1 (human),76.9%
same,residual activity,CDC42BPB (human),98.4%
same,residual activity,HIPK2 (human),94.3%
same,residual activity,PRKG1 (human),102% and 104%
same,residual activity,STK17A (human),96.3%
same,residual activity,FLT1 (human),97.5%
same,residual activity,RIPK2 (human),87.7%
same,residual activity,DDR2 (human),128%
same,residual activity,SGK2 (human),121%
same,residual activity,CAMK2G (human),104%
same,residual activity,CSNK1D (human),65.7%
same,residual activity,RAF1 (human),113%
same,residual activity,DAPK1 (human),95.3%
same,residual activity,ROS1 (human),96.5%
same,residual activity,MARK2 (human),74.1%
same,residual activity,TAOK1 (human),79.9%
same,residual activity,TXK (human),42.5%
same,residual activity,STK4 (human),63.6%
same,residual activity,RPS6KB2 (human),98.2%
same,residual activity,TBK1 (human),86.6%
same,residual activity,MYLK (human),81.3%
same,residual activity,PHKG2 (human),105%
same,residual activity,IRAK4 (human),86.8%
same,residual activity,SRPK2 (human),31%
same,residual activity,JAK2 JH1 JH2 (human),100%
same,residual activity,DYRK2 (human),93.2%
same,residual activity,PLK1 (human),54.9%
same,residual activity,CSNK2A1 (human),99.3%
same,residual activity,MST4 (human),67.8%
same,residual activity,GRK7 (human),79.3%
O=C1NC(=O)C(c2cn(CCCO)c3ncccc23)=C1c1cnccn1,residual activity,JAK3 JH1 JH2 (human),134%
same,residual activity,PRKCA (human),91.1%
same,residual activity,CSF1R (human),98.4%
same,residual activity,DYRK1B (human),93.2%
same,residual activity,LYN (human),101% and 112%
same,residual activity,NEK7 (human),95.4%
same,residual activity,ABL1 (human),98.9%
same,residual activity,STK10 (human),104%
same,residual activity,PRKD3 (human),78.2%
same,residual activity,CDK9 CCNK (human),89.5%
same,residual activity,ACVRL1 (human),105%
same,residual activity,AURKC (human),113%
same,residual activity,EPHA1 (human),73.9%
same,residual activity,HIPK2 (human),96.6%
same,residual activity,STK17A (human),93.6%
same,residual activity,FLT1 (human),89.4%
same,residual activity,RIPK2 (human),90.9%
same,residual activity,DDR2 (human),94.6%
same,residual activity,SGK2 (human),96.9%
same,residual activity,CAMK2G (human),90.6%
same,residual activity,CSNK1D (human),99.4%
same,residual activity,RAF1 (human),100%
same,residual activity,DAPK1 (human),74.4%
same,residual activity,ROS1 (human),106%
same,residual activity,MARK2 (human),97.5%
same,residual activity,TAOK1 (human),132%
same,residual activity,TXK (human),75.3%
same,residual activity,STK4 (human),83.6%
same,residual activity,RPS6KB2 (human),94.7%
same,residual activity,TBK1 (human),98.8%
same,residual activity,MYLK (human),74%
same,residual activity,PHKG2 (human),102%
same,residual activity,IRAK4 (human),129%
same,residual activity,SRPK2 (human),97.9%
same,residual activity,JAK2 JH1 JH2 (human),97.8%
same,residual activity,DYRK2 (human),81.7%
same,residual activity,PLK1 (human),103%
same,residual activity,CSNK2A1 (human),78.9%
same,residual activity,MST4 (human),78.7%
same,residual activity,GRK7 (human),118%
Nc1nnc2[nH]c3ccccc3nc1-2,residual activity,JAK3 JH1 JH2 (human),68%
same,residual activity,PRKCA (human),71%
same,residual activity,CSF1R (human),95.3%
same,residual activity,DYRK1B (human),96%
same,residual activity,LYN (human),108% and 97%
same,residual activity,NEK7 (human),93.1%
same,residual activity,ABL1 (human),91.6%
same,residual activity,STK10 (human),94.6%
same,residual activity,PRKD3 (human),87.3%
same,residual activity,CDK9 CCNK (human),88.3%
same,residual activity,ACVRL1 (human),105%
same,residual activity,AURKC (human),90.8%
same,residual activity,EPHA1 (human),100%
same,residual activity,CDC42BPB (human),100%
same,residual activity,HIPK2 (human),95.9%
same,residual activity,PRKG1 (human),93% and 97.7%
same,residual activity,STK17A (human),95.2%
same,residual activity,FLT1 (human),92.1%
same,residual activity,RIPK2 (human),81.1%
same,residual activity,DDR2 (human),94.6%
same,residual activity,SGK2 (human),90.3%
same,residual activity,CAMK2G (human),108%
same,residual activity,CSNK1D (human),94.2%
same,residual activity,RAF1 (human),94.4%
same,residual activity,DAPK1 (human),91.5%
same,residual activity,ROS1 (human),106%
same,residual activity,MARK2 (human),110%
same,residual activity,TAOK1 (human),101%
same,residual activity,TXK (human),97.6%
same,residual activity,STK4 (human),94.5%
same,residual activity,RPS6KB2 (human),102%
same,residual activity,TBK1 (human),92%
same,residual activity,MYLK (human),93.6%
same,residual activity,PHKG2 (human),96.6%
same,residual activity,IRAK4 (human),94.7%
same,residual activity,SRPK2 (human),95.9%
same,residual activity,JAK2 JH1 JH2 (human),105%
same,residual activity,DYRK2 (human),91.6%
same,residual activity,PLK1 (human),94.5%
same,residual activity,CSNK2A1 (human),87.6%
same,residual activity,MST4 (human),91.2%
